Results reported in paper PMC10637841, “Evaluation of Antioxidant and Anti-Inflammatory Activities, and Metabolite Profiling of Selected Medicinal Plants of Nepal” (Journal of Tropical Medicine, 2023).
Converted amounts (≈) assume the structure as drawn. Read-outs that look alike come from different tables or passages of the source. Values belong to the compound of their own block, whether it stands above or below them.

Experiments:
[1] = system: human red blood cells (HRBC) membrane; assay: HRBC membrane stabilization (heat-induced hemolysis); assay type: cell-based; conditions: Erythrocyte, read-out: HRBC membrane stabilization IC50
Procedure: (1) Erythrocyte Suspension. With few modifications, the erythrocyte suspension was prepared using the technique outlined by Pieroni et al.. Healthy human volunteers provided the blood sample, which was centrifuged for 10 minutes at 1500 rpm. The red blood cell (RBC) pallet was washed three times with PBS (pH 7.4) following centrifugation. The buffy coat and supernatant liquid were aspirated out following each wash. The RBCs were resuspended in PBS at a concentration of 20% (v/v). (2) Heat-Induced Hemolysis. The method explained by Gunathilake et al. was used to determine the heat-induced hemolysis with some modifications. […] Then, the mixture was incubated for 20 minutes at 54°C in the water bath with continuous shaking. The mixture was incubated and centrifuged at 2500 rpm for 3 minutes. By using a UV spectrophotometer, the absorbance of supernatant was measured at 540 nm. In the experiment, PBS will be used as blank.

[2] = Ferric (Fe3+) ion reducing power; assay type: biochemical; conditions: ethanolic leaf extract 100-2000 μg/mL; mean ± SEM
Procedure: (§1) The antioxidant activity of twelve plant extracts was estimated by using various methods, including (2, 2-diphenyl-1-picrylhidrazyl) DPPH free radical scavenging activity, ferrous (Fe^2+) ion chelating agent, ferric (Fe^3+) ion reducing power, nitric oxide (NO^−) scavenging activity, hydroxyl radical scavenging activity, hydrogen peroxide scavenging activity, and total antioxidant activity.
The ferric ion-reducing antioxidant power assay of twelve plant extracts was carried out. The activity was confirmed when the color of the solution was changed from yellow to green and Prussian blue based on the reduction property of extracts and standard, which was measured at 700 nm wavelength using a UV spectrophotometer. The absorbance value was increased with the increasing concentration of plant extract (Table 4).

[3] = Total antioxidant activity (phosphomolybdenum); assay type: biochemical; conditions: ethanolic leaf extract 100-2000 μg/mL; mean ± SEM
From the text: as §1

[4] = Nitric oxide (NO) scavenging activity; assay type: biochemical; conditions: ethanolic leaf extract 100-2000 μg/mL; mean ± SEM
From the text: as §1

[5] = DPPH free radical scavenging activity; assay type: biochemical; conditions: ethanolic leaf extract 100-2000 μg/mL; mean ± SEM
From the text: as §1

[6] = Hydrogen peroxide scavenging activity; assay type: biochemical; conditions: ethanolic leaf extract 100-2000 μg/mL; mean ± SEM
From the text: as §1

[7] = Ferrous (Fe2+) ion chelating activity; assay type: biochemical; conditions: ethanolic leaf extract 100-2000 μg/mL; mean ± SEM
From the text: as §1

[8] = Hydroxyl radical scavenging activity; assay type: biochemical; conditions: ethanolic leaf extract 100-2000 μg/mL; mean ± SEM
From the text: as §1

rats = system: rats; set-up: method as in PMID 32061742; conditions: rats, 25, 50, and 100 mg/kg; ref [7]; cited from earlier work
[9] = ethanolic leaf extract 100-2000 μg/mL

Compound: O=C(O)COC(=O)Cc1ccccc1Nc1c(Cl)cccc1Cl [Aceclofenac, aceclofenac]
- IC50 [1, 9]: 21.9 ± 2.34 µg/mL (≈ 61.8 µM)

- Ferric reducing IC50 [2]: 2.47 ± 0.40 µg/mL
- Total antioxidant activity IC50 [3]: 2.87 ± 0.10 µg/mL
- Nitric oxide scavenging IC50 [4]: 3.91 ± 0.80 µg/mL
- DPPH scavenging IC50 [5]: 4.54 ± 0.98 µg/mL
- H2O2 scavenging IC50 [6]: 3.31 ± 0.58 µg/mL
- Ferrous ion chelating IC50 [7]: 3.68 ± 0.59 µg/mL
- Hydroxyl radical scavenging IC50 [8]: 4.75 ± 0.43 µg/mL
Compound: O=C1O[C@H]([C@@H](O)CO)C(O)=C1O [Ascorbic acid]

Compound: CC(=O)Oc1ccccc1C(=O)O [Aspirin, aspirin]
- IC50 [1, 9]: 21.3 ± 0.43 µg/mL (≈ 118 µM)

Compound: COc1ccc(O)c(C(C)(C)C)c1 [BHA, Butylated Hydroxyl Annisole]
- Ferric reducing IC50 [2]: 3.02 ± 0.30 µg/mL
- Nitric oxide scavenging IC50 [4]: 5.58 ± 0.68 µg/mL

- DPPH scavenging IC50 [5]: 2.90 ± 0.51 µg/mL
- H2O2 scavenging IC50 [6]: 2.89 ± 0.32 µg/mL
- Ferrous ion chelating IC50 [7]: 2.81 ± 0.82 µg/mL
- Hydroxyl radical scavenging IC50 [8]: 2.90 ± 0.98 µg/mL
Compound: Cc1cc(C(C)(C)C)c(O)c(C(C)(C)C)c1 [BHT, Butylated Hydroxyl Toulene]

Compound: Cc1ccc(-c2ncc(Cl)cc2-c2ccc(S(C)(=O)=O)cc2)cn1 [Etoricoxib, etoricoxib]
- IC50 [1, 9]: 11 ± 1.65 µg/mL (≈ 30.6 µM)

Compound: COc1ccc2c(c1)c(CC(=O)O)c(C)n2C(=O)c1ccc(Cl)cc1 [Indomethacin, indomethacin]
- IC50 [1]: 7.14 ± 0.31 µg/mL (≈ 20 µM)

Compound: C=C1CC[C@@H]2[C@](C)(CO)[C@H](O)CC[C@@]2(C)[C@@H]1C/C=C1/C(=O)OC[C@H]1O [andrographolide]
- Concentration of catalase, superoxide dismutase, and glutathione (antioxidant enzymes) (rats): increase
- Level of articular elastase, TNF-α, IL-6, CXC chemokine ligand 2, and myeloperoxidase (rats): decrease
